# Data published in patent publication US11786527B2, “Pharmaceutical composition and preparation method therefor and uses thereof” (WUXI SHUANGLIANG BIOTECHNOLOGY CO., LTD., priority 2018, dated 2023).
# Key:
# [1] = Solubility and solution stability of C-005 and its salts; assay type: physicochemical
# [2] = system: activated form and resistant mutant form of EGFR; details: cited from earlier work
# WT EGFR = WT EGFR (Homo sapiens, UniProt P00533); details: cited from earlier work
# WT EGFR, sequence (P00533 25-1210): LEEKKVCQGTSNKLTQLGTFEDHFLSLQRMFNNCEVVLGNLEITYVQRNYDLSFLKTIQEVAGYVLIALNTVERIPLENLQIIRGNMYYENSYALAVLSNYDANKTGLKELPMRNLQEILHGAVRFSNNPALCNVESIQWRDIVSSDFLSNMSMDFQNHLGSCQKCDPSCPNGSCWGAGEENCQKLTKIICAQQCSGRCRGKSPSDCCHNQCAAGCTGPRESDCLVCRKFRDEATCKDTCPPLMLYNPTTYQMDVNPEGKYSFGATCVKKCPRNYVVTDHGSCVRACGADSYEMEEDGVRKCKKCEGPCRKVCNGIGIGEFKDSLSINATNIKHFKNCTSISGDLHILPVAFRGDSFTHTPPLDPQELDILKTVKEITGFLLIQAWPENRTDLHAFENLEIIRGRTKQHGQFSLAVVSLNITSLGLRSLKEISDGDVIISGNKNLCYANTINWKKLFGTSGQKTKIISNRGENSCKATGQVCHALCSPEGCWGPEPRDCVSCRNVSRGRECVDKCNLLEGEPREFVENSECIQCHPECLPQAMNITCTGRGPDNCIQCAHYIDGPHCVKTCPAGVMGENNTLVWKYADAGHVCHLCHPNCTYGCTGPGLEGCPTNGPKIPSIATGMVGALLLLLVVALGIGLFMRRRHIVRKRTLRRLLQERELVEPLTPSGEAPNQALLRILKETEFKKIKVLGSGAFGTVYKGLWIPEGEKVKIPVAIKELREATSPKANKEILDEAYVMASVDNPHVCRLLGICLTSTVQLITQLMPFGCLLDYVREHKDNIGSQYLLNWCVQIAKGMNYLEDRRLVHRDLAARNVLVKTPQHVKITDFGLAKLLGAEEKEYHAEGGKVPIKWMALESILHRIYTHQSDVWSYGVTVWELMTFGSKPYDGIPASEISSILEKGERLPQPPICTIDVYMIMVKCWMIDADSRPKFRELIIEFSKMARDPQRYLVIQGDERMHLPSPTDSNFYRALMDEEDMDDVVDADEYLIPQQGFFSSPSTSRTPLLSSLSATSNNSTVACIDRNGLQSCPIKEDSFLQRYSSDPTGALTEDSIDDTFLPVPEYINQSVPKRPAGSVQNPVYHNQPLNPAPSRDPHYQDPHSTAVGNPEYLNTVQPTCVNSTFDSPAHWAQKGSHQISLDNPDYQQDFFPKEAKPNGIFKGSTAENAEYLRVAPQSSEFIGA
SMILES,"Time period for which the solution is stable and does not precipitate ([1]; solution of the citrate, once formed)",Solubility compared with C-005 in the free-base form ([1]; under the pH conditions in intestine),pH dependence of solubility (and permeability) [1],Solubility in simulated gastric fluid compared to the solubility in aqueous solution ([1]; simulated gastric fluid (pH 1.2) vs aqueous solution (pH 7)),Inhibition of activated form and resistant mutant form of EGFR [2],Inhibitory activity against WT EGFR (WT EGFR)
"C=CC(=O)Nc1cc(Nc2nccc(-c3cn(C)c4cccnc34)n2)c(OC)cc1N(C)CCN(C)C.O=C(O)CC(O)(CC(=O)O)C(=O)O [C-005 citrate, N-(2-((2-(dimethylamino)ethyl)(methyl)amino)-4-methoxy-5-((4-(1-methyl-1H-pyrrolo[3,2-b]pyridin-3-yl)pyrimidin-2-yl)amino)phenyl)acrylamide citrate]",at least 24 hours,significantly higher,–,–,–,–
"C=CC(=O)Nc1cc(Nc2nccc(-c3cn(C)c4cccnc34)n2)c(OC)cc1N(C)CCN(C)C [C-005, N-(2-((2-(dimethylamino)ethyl)(methyl)amino)-4-methoxy-5-((4-(1-methyl-1H-pyrrolo[3,2-b]pyridin-3-yl)pyrimidin-2-yl)amino)phenyl)acrylamide]",–,–,significant pH-dependent solubility and permeability,approximately 40 times,inhibit both activated form and resistant mutant form of EGFR,relatively low inhibitory activity
